Results taken from PubChem BioAssay (NCI).
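These data come from cells grown in 96-well plates and exposed to compound for 48 hours at five concentrations. TGI marks complete inhibition of growth.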

What was measured:
Assay in all cases: DTP human tumour cell line panel, 48 h
[1] = test system: KM20L2 colon
[2] = test system: TK-10 renal
[3] = test system: LXFL 529 NSCLC
[4] = test system: SF-539 CNS
[5] = test system: DMS 114 small cell lung
[6] = test system: SNB-78 CNS
[7] = test system: DLD-1 colon
[8] = test system: DMS 273 small cell lung
[9] = test system: HOP-18 NSCLC
[10] = test system: M19-MEL melanoma
[11] = test system: SK-OV-3 ovarian
[12] = test system: RPMI-8226 leukemia
[13] = test system: SR leukemia
[14] = test system: XF 498 CNS
[15] = test system: NCI-H226 lung
[16] = test system: RXF-631 renal

Row | Compound | TGI [1] [µM] | TGI [2] [µM] | TGI [3] [µM] | TGI [4] [µM] | TGI [5] [µM] | TGI [6] [µM] | TGI [7] [µM] | TGI [8] [µM] | TGI [9] [µM] | TGI [10] [µM] | TGI [11] [µM] | TGI [12] [µM] | TGI [13] [µM] | TGI [14] [µM] | TGI [15] [µM] | TGI [16] [µM]
1 | C=CCN(C)CN(C)c1nc(N(C)C)nc(N(C)C)n1 | > 100 | > 100 | 89 | > 100 | 42.7 | > 100 | > 100 | > 100 | > 100 | > 100 | > 100 | > 100 | > 100 | – | – | –
2 | O=c1cc(-c2ccc(Cl)cc2)oc2cc(OCCCOc3ccc4c(=O)cc(-c5ccc(Cl)cc5)oc4c3)ccc12 | > 100 | > 100 | > 100 | > 100 | > 100 | > 100 | > 100 | > 100 | > 100 | > 100 | > 100 | > 100 | > 100 | > 100 | > 100 | > 100
3 | O=C1CC(=O)N(CCc2ccccc2)S(=O)(=O)N1CCc1ccccc1 | – | > 100 | 40.7 | 43.5 | 48.6 | – | > 100 | 43.8 | > 100 | > 100 | 61 | 52 | 48.2 | – | – | –
4 | COC(=O)[C@@]12OC[C@]34C([C@@H](O)C1O)[C@@]1(C)CC(=O)C(OC(=O)/C=C(/c5ccccc5)C(F)(F)F)=C(C)C1C[C@H]3OC(=O)[C@H](O)[C@H]42 (stereo partly drawn) | 36.6 | > 50 | > 50 | 13 | 22.3 | > 50 | 31.9 | 18 | > 50 | > 50 | > 50 | 13.9 | 19.4 | 33 | 29.5 | –
5 | [N-]=[N+]=NC(CBr)c1cn([C@H]2C[C@H](O)[C@@H](CO)O2)c(=O)[nH]c1=O (stereo partly drawn) | > 100 | > 100 | > 100 | > 100 | > 100 | > 100 | > 100 | > 100 | > 100 | > 100 | > 100 | > 100 | > 100 | – | > 100 | –
6 | COc1cc2c(cc1OC)C(=O)C(C1=C(SC(=N)N)C(=O)c3cc(OC)c(OC)cc31)C2 (stereo not drawn) | > 100 | – | > 100 | > 100 | > 100 | > 100 | > 100 | > 100 | – | > 100 | > 100 | > 100 | > 100 | > 100 | > 100 | –
7 | Cn1c2cc(O)cc(O)c2c(=O)c2c([N+](=O)[O-])cccc21 | > 100 | > 100 | > 100 | > 100 | > 100 | > 100 | > 100 | > 100 | > 100 | – | > 100 | > 100 | > 100 | – | > 100 | > 100
8 | Cn1ncnc1CCc1ccccc1 | > 100 | > 100 | > 100 | > 100 | > 100 | > 100 | – | > 100 | > 100 | > 100 | > 100 | > 100 | > 100 | – | > 100 | –
9 | CC(C)C(/C=C/c1ccc(Br)cc1)=N\NC(N)=O | > 100 | > 100 | > 100 | > 100 | > 100 | > 100 | > 100 | > 100 | – | 25.4 | > 100 | > 100 | > 100 | > 100 | > 100 | –
